Here are results for 14 molecules from US20240209022A1, “NOVEL PEPTIDE HAVING ANTI-INFLAMMATORY AND TISSUE REGENERATIVE ACTIONS” (KOREA RESEARCH INSTITUTE OF BIOSCIENCE AND BIOTECHNOLOGY, priority 2020, published 2024).

Assay [1] has as its system C57BL/6 mice with telogen hair. The assay can be described thus: Hair growth promotion on shaved dorsal skin. The assay is classed as in vivo. The note with it: vs vehicle. How it is done:
In order to examine the hair growth promoting efficacy, 8-week-old C57BL/6 mice with telogen hair having pink dorsal skin were used. The mice were anesthetized, then the hair on the back of the mouse was removed using an electric hair clipper for animals. Amuc_1409 was dissolved in vehicle (50% ethanol, 20% propylene glycol, 30% water) at a concentration of 3.2 μM and then applied to the skin of the hair-removed site by 200 μL per animal using a pipette once a day for 21 days, and PEP006 to PEP013 were each dissolved in vehicle (50% ethanol, 20% propylene glycol, 30% water) at a concentration of 30 μM and then applied to the skin of the hair-removed site by 200 μL per animal using a pipette once a day for 28 days. For the control group, the same volume of vehicle (50% ethanol, 20% propylene glycol, 30% water) was applied to the skin.
Skin color and hair density were visually observed, scored according to the scoring criteria in Table 5, and graphed (Table 5).
After the experiment, the test animals were sacrificed, then the skin tissue of the mouse was fixed in 10% NBF at room temperature for 24 hours or more, and then embedded in paraffin to prepare a 5 μm-thick section, and the section was stained with (H&E) hematoxylin and eosin. The histological changes of the hair follicle tissue in the H&E-stained tissue sections were observed under an optical microscope. The number and depth of hair follicles and the thicknesses of dermis and subcutis were measured under an optical microscope, and the hair growth cycle was evaluated. The number of hair follicles was calculated by counting the number of hair follicles present in the subcutaneous tissue under a 100-magnification optical microscope. Changes in the depth of hair follicles and the thicknesses of dermis and subcutis were measured using the Image J program using a scale bar.

In assay [2] the test system is C57BL/6J naturally aged mice. The assay can be described thus: Skin aging in naturally aged mice (skin H&E). The assay is classed as in vivo, C57BL/6J mice. The following applies: oral, vs PBS buffer group. The protocol: As an animal model of aging, 19- to 22-month old C57BL/6J naturally aged mice were used. Solid feed and water were sufficiently supplied until the day of the experiment, the environment was maintained at a temperature of 22° C. 2° C., humidity of 55%±15%, and a 12-hour light/dark cycle, and the mice were used for the experiment. Amuc_1409 and PEP001 were dissolved in PBS buffer at 10 μg/150 μL and 0.7 μg/150 μL, respectively, and then orally administered to the naturally aged mice by 150 μL per animal at the same time once a day for […], and novel tetrapeptides PEP006, PEP007, PEP008, PEP009, and PEP010 and novel tripeptides PEP011, PEP012, and PEP013 were each dissolved in PBS buffer at a concentration of 0.2 μg/150 μL and then orally administered to the naturally aged mice by 150 μL per animal at the same time once a day for 10 weeks. To the control group, PBS buffer was orally administered in the same manner.
On the day to be the 10th week of administration, a part of the tissue was excised from the back of the mouse and fixed in 10% formalin for 24 hours or more for histopathological analysis.
The fixed skin tissue was embedded in paraffin to prepare a 5 μm-thick section, and the skin section was H&E-stained with hematoxylin and eosin to analyze the skin epidermis thickness and the number of hair follicles.

Assay [3] concerns ConA-induced acute hepatitis model. The assay can be described thus: ConA-induced acute hepatitis model. The class given is in vivo, C57BL/6J mice. The following applies: vs PBS buffer group; for ALT / AST: plasma, 9 hours after ConA. How it is done:
An acute hepatitis model was induced by dissolving ConA (concanavalin A) in PBS buffer (phosphate buffered saline) at 1.5 mg/mL and injecting the solution into 8-week-old specific pathogen free (SPF) male C57BL/6J mice through the tail vein in proportion to the mouse body weight based on 100 μL/10 g. Amuc_1409 or PEP001, PEP002, PEP003, PEP004, or PEP005 was dissolved in PBS buffer at a concentration of 6.7 μM from 3 days before ConA administration, and PEP007, PEP008, PEP009, or PEP010 was dissolved in PBS buffer at a concentration of 0.2 μg/150 μL from 3 days before ConA administration, and Amuc_1409 was injected into the mouse peritoneal cavity once a day at the same time by 210 μL and PEP001 to PEP010 by 150 μL, and intraperitoneally injected additionally one time 30 minutes before ConA injection, and the experiment was terminated 9 hours after ConA intravenous injection. Into the control group, PBS buffer was intravenously injected in the same manner. At the end of the experiment 9 hours after ConA intravenous injection, blood was collected from the orbital venous plexus using a heparin-treated capillary tube, and the collected blood was immediately centrifuged at 10,000 rpm (4° C.) for 10 minutes to separate plasma and then subjected to the analysis of alanine aminotransferase (ALT) and aspartate aminotransferase (AST), which are indicators of liver damage, using an automatic blood biochemical analyzer (Beckman Coulter AU480 automatic analyzer, Beckman Coulter). The liver was harvested, a part of the liver was fixed in 10% NBF at room temperature for 24 hours or more and then embedded in paraffin to prepare a 5 μm-thick section, and the section was stained with hematoxylin and eosin (H&E).

The mark [4] stands for this setting: day 28 after application, 30 μM topical.

In the case of AGAY (PEP006), in assay [1] (setting [4]), the “proportion of the area where hair grew out to the total area (hair growth score)” value (from here on “proportion … (hair growth score)”) was “tended to increase”. Besides, in assay [2], the “number of hair follicles” value is on record as “tended to increase” and the “thickness of the skin epidermis” value is recorded as “significantly increased”.

As to AGS [PEP012], the “proportion … (hair growth score)” value in assay [1] (setting [4]) is reported as “tended to increase”. For the same molecule, in assay [2], the “number of hair follicles” value is “tended to increase” and the “thickness of the skin epidermis” value was “significantly increased”.

AIS [PEP013]: the “proportion … (hair growth score)” value in assay [1] (setting [4]) was “tended to increase”. Moreover, in assay [2], the “number of hair follicles” value was “tended to increase” and the “thickness of the skin epidermis” value is on record as “increased close to a significant level”.

Turning to AQS [PEP011], the “proportion … (hair growth score)” value in assay [1] (setting [4]) is reported as “tended to increase”. For the same molecule, the “thickness of the skin epidermis” value in assay [2] is on record as “significantly increased”.

In the case of AVS (AVSSIKGAY) [PEP004], in assay [3], the ALT entry is recorded as “significantly decreased” and the AST entry is on record as “tended to decrease”.

For the molecule AVSSI (PEP002), in assay [3], the ALT entry is listed as “significantly decreased” and the AST result is listed as “tended to decrease”.

As for AVSSIKGAY (PEP001), in assay [3], the ALT entry is “decreased close to a significant level” and the AST result is listed as “decreased close to a significant level”. The “thickness of the skin epidermis” value in assay [2] was “significantly increased”.

Consider GAY [PEP005], for which, in assay [3], the ALT result was “decreased close to a significant level” and the AST entry is on record as “tended to decrease”.

With IGAY (PEP008), the “proportion … (hair growth score)” value in assay [1] (setting [4]) is “tended to increase”. The ALT result in assay [3] is listed as “tended to decrease”. Moreover, in assay [2], the “number of hair follicles” value is listed as “tended to increase” and the “thickness of the skin epidermis” value is recorded as “significantly increased”.

On to KGAY (PEP003), for which, in assay [3], the ALT result is reported as “significantly decreased” and the AST result is reported as “tended to decrease”.

On to RGAY (PEP007), for which the “proportion … (hair growth score)” value in assay [1] (setting [4]) is reported as “tended to increase”. Further, in assay [3], the ALT entry is listed as “significantly decreased” and the AST entry is “tended to decrease”. In addition, in assay [2], the “number of hair follicles” value is given as “tended to increase” and the “thickness of the skin epidermis” value is recorded as “significantly increased”.

Take SGAY (PEP009): in assay [1] (setting [4]), the “proportion … (hair growth score)” value is reported as “tended to increase”. Further, in assay [3], the ALT entry is recorded as “tended to decrease” and the AST entry is reported as “tended to decrease”. In addition, in assay [2], the “number of hair follicles” value is reported as “tended to increase” and the “thickness of the skin epidermis” value is listed as “significantly increased”.

With VGAY (PEP010), in assay [3], the ALT result is listed as “significantly decreased” and the AST result was “decreased close to a significant level”. In addition, in assay [2], the “number of hair follicles” value was “tended to increase” and the “thickness of the skin epidermis” value is listed as “significantly increased”.

B1: Amuc_1409: SEQ ID NO: 15, functional fragment obtained by eliminating the leader sequence from SEQ ID NO: 14; protein derived from Akkermansia muciniphila (protein)
chain: IPESSVPAAAVSSIKGAYPNAGPIEWDSEMHGMERIYEAEFRINGFQFDVKIAPDGKIVRIKEEIAASSLPEAVRASVLKRYPGCRIKEAEKITEGELVRYKVEVADSRDDYDVLIAPDGNILHVDR
modifications: Amuc_1409_fragment
notes: protein derived from Akkermansia muciniphila
Turning to B1, in assay [1] (H&E), the “depth of the hair follicle” value is recorded as “significantly increased”, the “number of hair follicles present in the subcutaneous fat layer” value is listed as “significantly increased”, the “proportion of hair in the anagen phase” value is “significantly increased” and the thickness of dermis result is “significantly increased”. Moreover, the thickness of subcutis result in assay [1] (H&E) is “significantly increased”. In assay [1] (day 21 after application, 3.2 μM topical), the “proportion … (hair growth score)” value is listed as “significantly increased”. Further, in assay [3], the ALT result is on record as “significantly decreased”; the AST result was “significantly decreased”; the “inflammatory cells infiltration into the liver and necrosis in the liver parenchyma (H&E)” value was “markedly reduced”. For the same molecule, the “thickness of the skin epidermis” value in assay [2] is given as “significantly increased”.
